Results as given in patent publication US20110064694A1, “ANTI-HEPATITIS C ACTIVITY OF MESO-TETRAKIS-PORPHYRIN ANALOGUES” (YALE UNIVERSITY, priority 2009, published 2011).
Where two headings read alike, the source gives them in different places.

Experiments:
[1] = Cytotoxicity in CEM cells; settings: human
[2] = Cytotoxicity in Huh-7 cells (methylene blue or CellTiter-Glo); type: cell-based; settings: human; Huh-7 cells, 3 days
Description: (§1) Determination of cytotoxicity and mitochondrial DNA toxicity. Exponentially growing Huh-7 cells were seeded at a density of 1×10^4 cells per well in a 24-well plate and incubated with TPP analogues for 3 days. Cells were fixed and stained with 0.5% methylene blue in 50% ethanol followed by extensive washing. After the plates were air dried, cells were solubilized in 1% sarkosyl and cell growth was determined from the extent of absorption by spectrophotometric measurements at 595 nm (Biotek Instruments). For compounds whose dark color interfered with 595-nm reading, cytotoxicity was measured by the CellTiter-Glo luminesecent cell viability assay following manufacturer's description (Promega). Cytotoxicity in MT-2 cells was determined from colorimetric quantitation of uninfected MT-2 cells after 5 days of coincubation.

[3] = system: HIV-1 IIIB; assay: Anti-HIV activity in MT-2 cells, MTT quantitation of viral CPE; type: cell-based; settings: read-out: Antiviral Activity EC50 HIV-1 IIIB
Description: (§2) Determination of antiviral activities. Ff-luciferase reporter activity was used to monitor the replication of HCV replicons in Huhluc/neo-ET cells free from G418. Replicon cells were seeded at the density of 5×10^3 cells per well in 96-well plates. The following day, replicon cells were incubated in duplicates with DMSO or serially diluted tetraphenylporphyrin (TPP) analogues at 37″C. 72 hrs after co-incubation, cells were lysed with ice-cold passive lysis reagent after PBS wash, and the luciferase activity was measured with the luciferase assay kit (Promega) and Tecan FARCyte luminometer (GE Healthcare) following the manufacturers' descriptions. The relative light units (RLU) were adjusted as percentage readings of the compound-free controls and the 50% effective concentration (EC50) was determined from dose-effect curve by nonlinear regression analysis using Origin 6.1 (OriginLab Software). TPP analogues were also screened in vitro against HIV-I IIIB and HBV as previously described (26,41). Briefly 1×10^3 MT-2 cells per well were exposed in triplets to 0.1TC1D50/cell (50% of the tissue culture infectious dose) of HIV-1 IIIB and cultured in the presence of compounds. The EC50 values were estimated by MTT-based colorimetric quantitation of viral CPE after 5 days. Anti-HBV activities were evaluated in 2.2.15 cells by means of Southern DNA hybridization.

[4] = system: HCV genotype 2a (JFH-1) replicon; assay: HCV RNA quantification by qRT-PCR in YSGR-JFH cells; type: cell-based, Hepatitis C virus; settings: Hepatitis C virus, 72 h, read-out: antiviral EC50 against YSGR-JFH replicon cells
Description: (§3) Cells. HCV genotype 1b (Con 1 isolate) subgenomic replicon cell line with luciferase reporter (Huh-luc/neo-ET) was kindly provided by Ralf Bartenschlager from the University of Heidelberg (37). Huh-luc/neo-ET cells were cultured in Dulbecco's modified Eagle medium (DMEM , supplemented with 10% fetal bovine serum (FBS), 1 mM nonessential amino acids, and 250 μg/ml of G418 (Invitrogen). Genotype 2a (JFH-I isolate) subgenomic replicon cells YSGR-JFH were cultured in DMEM containing 10 To fetal calf serum, 1 mM nonessential amino acids and 400 μg/ml G418 (31). An additional genotype 1b (Conl) replicon cell line (4291BBix) was cultured in similar media but with 3 μg/ml blasticidin (22).
Activity of compound 6 against genotype 2a (JFH-I) replicons. In parallel to Huh-luc/neo-ET cells, 1×10^5 YSGR-JFH cells per well were incubated with DMSO control, compound 6, or recombinant human IFNα-2a (Pestka Biomedical Laboratories) in 6-well plates. Cells were harvested after 72 hrs of co-incubation and HCV RNAs were quantitated by qRT-PCR and normalized as described above.

[5] = system: HCV genotype 1b (Con1) replicon; assay: Effect of serum concentration on anti-HCV activity, luciferase assay in Huh-luc/neo-ET cells; type: cell-based, Hepatitis C virus; settings: for Fold Change in EC50 5% FBS: EC50 at 5% FBS as one fold; for EC50: 72 hrs; for Fold Change in EC50 10% FBS / Fold Change in EC50 20% FBS / Fold Change in EC50 40% FBS: relative to EC50 at 5% FBS
Description: Cells were harvested after 72 hrs for luciferase activity assays.
Huh-luc/neo-ET cells were incubated with compound 1, 4 or 6 for 72 hrs and the anti-HCV activity was evaluated by measuring the reduction of reporter luciferase activities.

[6] = system: HCV genotype 1b (Con 1 isolate) subgenomic replicon; assay: microbe, parasite or virus in culture; type: cell-based, Hepatitis C virus; settings: for improvement in anti-HCV EC50 over compound 2: relative to lead compound 2
Description: as §3, §2

[7] = system: mitochondrial DNA content of CEM cells; assay: Mitochondrial DNA toxicity, slot blot of CEM cell lysates; type: cell-based; settings: read-out: Mitochondrial DNA Toxicity IC50 CEM
Description: Quantitation of mitochondrial DNA content was performed as previously published (18). Briefly, CEM cell lysates were spotted onto Hybond paper using the Miliford II slot blot apparatus (Schleicher & Schuell). MTDNA was detected with mtDNA-specific probe and then reprobed with Alu probe for internal control. The autoradiographic bands were quantified on scanning densitometer (Molecular Dynamics).

[8] = biological target: cytochrome c (Equus caballus, UniProt P00004); settings: read-out: Kd, binding to cyt c; cited from earlier work
[9] = system: HBV; assay: Anti-HBV activity in 2.2.15 cells by Southern DNA hybridization; type: cell-based; settings: read-out: Antiviral Activity EC50 HBV
Description: as §2

[10] = Cytotoxicity in uninfected MT-2 cells; type: cell-based; settings: human; uninfected MT-2 cells, 5 days
Description: as §1

[11] = system: CEM cells; assay: Cytotoxicity in CEM cells; settings: read-out: Cytotoxicity CC50 CEM
[12] = system: Huh-7 cells; assay: Cytotoxicity in Huh-7 cells (methylene blue or CellTiter-Glo); type: cell-based
Description: as §1

[13] = system: MT-2 cells; assay: Cytotoxicity in uninfected MT-2 cells; type: cell-based
Description: as §1

[14] = system: CEM cells
[15] = Huh-luc/neo-ET, 72 hrs, luciferase, read-out: Antiviral Activity EC50 HCV

Chain of cytochrome c (P00004 2-105 limits assumed): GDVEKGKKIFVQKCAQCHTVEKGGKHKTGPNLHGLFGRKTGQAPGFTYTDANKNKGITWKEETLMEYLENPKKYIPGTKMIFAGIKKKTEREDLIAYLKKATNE

| Structure (SMILES) | EC50 ([3]; MT-2 cells, 5 days) [µM] | EC50 [6, 15] [µM] | IC50 ([7]; CEM cells) [µM] | EC50 [9] [µM] | CC50 [12] [µM] | CC50 [13] [µM] | CC50 [14] [µM] | further results |
| --- | --- | --- | --- | --- | --- | --- | --- | --- |
| O=C(O)c1ccc(-c2c3nc(c(-c4ccc(C(=O)O)cc4)c4ccc([nH]4)c(-c4ccc(C(=O)O)cc4)c4nc(c(-c5ccc(C(=O)O)cc5)c5ccc2[nH]5)C=C4)C=C3)cc1 [Compound 1, Meso-Tetra(4-carboxyphenyl)porphine] |  |  |  |  |  |  |  | CC50 [1]: 34 µM; CC50 at 3 days [2]: > 50 µM; EC50 ([3]; Human immunodeficiency virus 1, IIIB, MT2, 120 h): > 25 µM; EC50 [4]: 1.9 µM; Fold Change in EC50 5% FBS [5]: 1.00; EC50 ([5]; Hepatitis C virus, Huh-luc/neo-ET, read-out: EC50 10% FBS, 10% FBS): 0.243 ± 0.036 µM; EC50 ([5]; Hepatitis C virus, Huh-luc/neo-ET, read-out: EC50 20% FBS, 20% FBS): 0.513 ± 0.069 µM; EC50 ([5]; Hepatitis C virus, Huh-luc/neo-ET, 5% FBS, read-out: EC50 5% FBS): 0.124 ± 0.008 µM; EC50 ([5]; Hepatitis C virus, Huh-luc/neo-ET, 40% FBS, read-out: EC50 40% FBS): 0.948 ± 0.089 µM; EC50 ([5]; Hepatitis C virus, Huh-luc/neo-ET, extrapolation of the plot of EC50 vs serum amount, read-out: EC50 0% FBS (Theoretical)): 0.0482 µM; Fold Change in EC50 10% FBS [5]: 1.95 ± 0.16; Fold Change in EC50 20% FBS [5]: 4.16 ± 0.82; Fold Change in EC50 40% FBS [5]: 7.62 ± 0.46; EC50 ([6]; Hepatitis C virus, Huh-luc/neo-ET, 72 hrs, luciferase, read-out: Antiviral Activity EC50 HCV): 0.243 ± 0.0359 µM; improvement in anti-HCV EC50 over compound 2 [6]: Over 7 fold; IC50 ([7]; Homo sapiens, CCRF-CEM): > 50 µM; Kd [8]: 0.95 ± 0.25 µM; EC50 ([9]; Hepatitis B virus): > 10 µM; CC50 at 5 days [10]: > 25 µM |
| O=C(O)CNC(=O)c1ccc(-c2c3nc(c(-c4ccc(C(=O)NCC(=O)O)cc4)c4ccc([nH]4)c(-c4ccc(C(=O)NCC(=O)O)cc4)c4nc(c(-c5ccc(C(=O)NCC(=O)O)cc5)c5ccc2[nH]5)C=C4)C=C3)cc1 [Compound 2] | > 25 | 1.8 ± 0.7 | 15 ± 3.7 | > 10 |  |  |  | CC50 [11]: 27 ± 15.1 µM; CC50 ([12]; Huh-7 cells, 3 days, read-out: Cytotoxicity CC50 Huh-7): > 50 µM; CC50 ([13]; uninfected MT-2 cells, 5 days, read-out: Cytotoxicity CC50 MT-2): 3.2 ± 1.13 µM |
| O=C(O)c1cc(C(=O)O)cc(-c2c3nc(c(-c4cc(C(=O)O)cc(C(=O)O)c4)c4ccc([nH]4)c(-c4cc(C(=O)O)cc(C(=O)O)c4)c4nc(c(-c5cc(C(=O)O)cc(C(=O)O)c5)c5ccc2[nH]5)C=C4)C=C3)c1 [Compound 3] | > 100 | 13.6 ± 1.1 | 25 | 7 | > 50 | 22 | > 50 |  |
| O=C(O)c1ccc(-c2ccc(-c3c4nc(c(-c5ccc(-c6ccc(C(=O)O)cc6)cc5)c5ccc([nH]5)c(-c5ccc(-c6ccc(C(=O)O)cc6)cc5)c5nc(c(-c6ccc(-c7ccc(C(=O)O)cc7)cc6)c6ccc3[nH]6)C=C5)C=C4)cc2)cc1 [Compound 4, Tetracarboxybiphenylporphyrin] | > 25 | 0.877 ± 0.0289 | 6 | > 10 | 32.2 ± 4.14 | > 25 | 10 | EC50 ([5]; 5% FBS, read-out: EC50 5% FBS): 0.633 ± 0.176 µM; EC50 ([5]; 40% FBS, read-out: EC50 40% FBS): 1.48 ± 0.015 µM; Fold Change in EC50 5% FBS [5]: 1.00; EC50 ([5]; extrapolation of the plot of EC50 vs serum amount, read-out: EC50 0% FBS (Theoretical)): 0.38 µM; EC50 ([5]; read-out: EC50 10% FBS, 10% FBS): 0.877 ± 0.029 µM; EC50 ([5]; read-out: EC50 20% FBS, 20% FBS): 1.21 ± 0.056 µM; Fold Change in EC50 10% FBS [5]: 1.46 ± 0.42; Fold Change in EC50 20% FBS [5]: 2.01 ± 0.52; Fold Change in EC50 40% FBS [5]: 2.48 ± 0.74; Kd [8]: 17 ± 0.84 µM |
| O=C(O)CNC(=O)c1ccc(-c2ccc(-c3c4nc(c(-c5ccc(-c6ccc(C(=O)NCC(=O)O)cc6)cc5)c5ccc([nH]5)c(-c5ccc(-c6ccc(C(=O)NCC(=O)O)cc6)cc5)c5nc(c(-c6ccc(-c7ccc(C(=O)NCC(=O)O)cc7)cc6)c6ccc3[nH]6)C=C5)C=C4)cc2)cc1 [Compound 5] | 1.5 ± 0.436 | 0.148 ± 0.006 | > 50 | > 20 | > 50 | 13 ± 4.36 | > 50 | improvement in anti-HCV EC50 over compound 2 [6]: 12 fold |
| O=C(O)CNC(=O)c1cc(C(=O)NCC(=O)O)cc(-c2ccc(-c3c4nc(c(-c5ccc(-c6cc(C(=O)NCC(=O)O)cc(C(=O)NCC(=O)O)c6)cc5)c5ccc([nH]5)c(-c5ccc(-c6cc(C(=O)NCC(=O)O)cc(C(=O)NCC(=O)O)c6)cc5)c5nc(c(-c6ccc(-c7cc(C(=O)NCC(=O)O)cc(C(=O)NCC(=O)O)c7)cc6)c6ccc3[nH]6)C=C5)C=C4)cc2)c1 [Compound 7] | 1.05 ± 0.071 | > 12.5 | 12.5 | > 10 | 12.5 | 15 ± 4.24 | > 50 |  |
| O=C(O)c1cccc(-c2ccc(-c3c4nc(c(-c5ccc(-c6cccc(C(=O)O)c6)cc5)c5ccc([nH]5)c(-c5ccc(-c6cccc(C(=O)O)c6)cc5)c5nc(c(-c6ccc(-c7cccc(C(=O)O)c7)cc6)c6ccc3[nH]6)C=C5)C=C4)cc2)c1 [Compound 9] | > 25 | 0.764 ± 0.06 | 22 | 8 | 13 ± 0.7 | > 25 | 50 |  |
| C[N+](C)(C)c1ccc(-c2c3nc(c(-c4ccc([N+](C)(C)C)cc4)c4ccc([nH]4)c(-c4ccc([N+](C)(C)C)cc4)c4nc(c(-c5ccc([N+](C)(C)C)cc5)c5ccc2[nH]5)C=C4)C=C3)cc1 [TTMAPP, 5,10,I5,20-Tetrakis (4(trimethylammonio)-phenyl)-21H,23H-porphine, reference compound] |  |  |  |  |  |  |  | EC50 ([6]; HCV replicons in vitro, read-out: anti-HCV EC50): 3.58 µM |
